The NIST ThermoML archive (doi:10.1021/je3006985)

Assays:
[1] = osmotic coefficient (dimensionless); mn = molality of the nth substance listed, in mol/kg; settings: 298.15 K, Liquid, Vapor Pressure Osmometer (Knaur K-7000)
[2] = mn = molality of the nth substance listed, in mol/kg; settings: 298.15 K, 101 kPa, Liquid

CCCCNc1ccc(C(=O)OCCN(C)C)cc1.Cl + O
Settings | mass density, [2] [kg/m3] | osmotic coefficient, [1]
m1 = 0.01696 | 997.722 | 0.896
m1 = 0.0205 | 997.869 | 0.884
m1 = 0.02526 | 998.076 | 0.871
m1 = 0.0301 | 998.265 | 0.858
m1 = 0.03454 | 998.444 | 0.848
m1 = 0.03897 | 998.614 | 0.839
m1 = 0.04254 | 998.764 | 0.832
m1 = 0.04793 | 998.98 | 0.822
m1 = 0.05807 | 999.405 | 0.805
m1 = 0.06741 | 999.767 | 0.79
m1 = 0.07521 | 1000.07 | 0.778
m1 = 0.08589 | 1000.49 | 0.762
m1 = 0.09567 | 1000.88 | 0.747
m1 = 0.1161 | 1001.66 | 0.716
m1 = 0.1436 | 1002.67 | 0.672
m1 = 0.1726 | 1003.78 | 0.622
m1 = 0.1924 | 1004.46 | 0.587
m1 = 0.2427 | 1006.27 | 0.498
m1 = 0.3009 | 1008.22 | 0.411
m1 = 0.3479 | 1009.67 | 0.367
m1 = 0.4005 | 1011.44 | 0.363

CCN(CC)CCOC(=O)c1ccc(N)cc1.Cl [2-diethylaminoethyl p-aminobenzoate hydrochloride] + O
Settings | mass density, [2] [kg/m3] | osmotic coefficient, [1]
m1 = 0.0158 | 997.809 | 0.885
m1 = 0.01893 | 997.979 | 0.873
m1 = 0.02475 | 998.219 | 0.856
m1 = 0.03023 | 998.477 | 0.843
m1 = 0.03265 | 998.609 | 0.838
m1 = 0.03891 | 998.872 | 0.827
m1 = 0.04358 | 999.105 | 0.82
m1 = 0.04823 | 999.338 | 0.814
m1 = 0.05787 | 999.774 | 0.804
m1 = 0.0712 | 1000.37 | 0.794
m1 = 0.09584 | 1001.52 | 0.781
m1 = 0.1165 | 1002.46 | 0.772
m1 = 0.1438 | 1003.64 | 0.759
m1 = 0.1749 | 1005.05 | 0.741
m1 = 0.1973 | 1005.94 | 0.727
m1 = 0.2187 | 1007.01 | 0.713
m1 = 0.2457 | 1008.14 | 0.694
m1 = 0.2791 | 1009.54 | 0.673
m1 = 0.2997 | 1010.41 | 0.661
m1 = 0.3205 | 1011.32 | 0.65
m1 = 0.3523 | 1012.67 | 0.636
m1 = 0.4061 | 1014.95 | 0.62
m1 = 0.4613 | 1016.97 | 0.609
m1 = 0.517 | 1019.21 | 0.587

CCN(CC)CC(=O)Nc1c(C)cccc1C.Cl [lidocaine hydrochloride] + O
Settings | mass density, [2] [kg/m3] | osmotic coefficient, [1]
m1 = 0.01004 | 997.37 | 0.879
m1 = 0.02018 | 997.713 | 0.83
m1 = 0.02958 | 998.034 | 0.807
m1 = 0.03474 | 998.184 | 0.8
m1 = 0.03911 | 998.35 | 0.796
m1 = 0.04409 | 998.51 | 0.793
m1 = 0.04809 | 998.641 | 0.792
m1 = 0.05588 | 998.887 | 0.792
m1 = 0.07017 | 999.384 | 0.796
m1 = 0.09322 | 1000.14 | 0.805
m1 = 0.1151 | 1000.85 | 0.812
m1 = 0.141 | 1001.69 | 0.813
m1 = 0.1712 | 1002.65 | 0.805
m1 = 0.188 | 1003.15 | 0.797
m1 = 0.2082 | 1003.81 | 0.785
m1 = 0.2386 | 1004.84 | 0.765
m1 = 0.2675 | 1005.71 | 0.748
m1 = 0.2906 | 1006.37 | 0.736
m1 = 0.3089 | 1006.95 | 0.728
m1 = 0.3399 | 1007.94 | 0.72
m1 = 0.3919 | 1009.45 | 0.718
m1 = 0.4432 | 1011.03 | 0.72
m1 = 0.4982 | 1012.71 | 0.696
